Test system: HCV replicon RNA replication in human Huh7 hepatoma cells
Experiment: HCV replicon assay (activity levels from either or both of HCV replicon assay 1, Huh7/Clone A RT-qPCR, and assay 2, Huh7 ET luc-ubi-neo/ET)
Assay type: cell-based, Hepatitis C virus (HCV)
Settings: Hepatitis C virus, Huh-7, either or both HCV replicon assays: Huh7/Clone A, 48 hours, 72 hours, Luc activity or RT-PCR, read-out: inhibit HCV replication at IC50 levels or estimated IC50 levels
Procedure, shortened: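 Huh7/Clone A subgenomic replicon cells treated 48 h at 37° C. with 7 serial dilutions in triplicate (0.5% DMSO final). Replicon RNA measured by TaqMan RT-qPCR on the neo gene, normalized to RiboGreen total RNA; untreated cells set as 100% for IC50.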

SMILES | IC50
CN1CCN(c2cc3c(cc2F)c(=O)c(-c2noc(C(CCCC(N)=O)c4ccccc4)n2)cn3Cc2ccc(C(F)(F)F)cc2F)CC1 (centres unmarked) [Compound 89, 5-{3-[6-fluoro-1-(2-fluoro-4-trifluoromethyl-benzyl)-7-(4-methyl-piperazin-1-yl)-4-oxo-1,4-dihydro-quinolin-3-yl]-[1,2,4]oxadiazol-5-yl}-5-phenyl-pentanamide] | < 0.5 µM
CN1CCN(c2cc3c(cc2F)c(=O)c(-c2noc(C4(c5ccccc5)CC4)n2)cn3C2(c3ccc(C(F)(F)F)cc3)CC2)CC1 [Compound 90, 6-fluoro-7-(4-methyl-piperazin-1-yl)-3-[5-(1-phenyl-cyclopropyl)-[1,2,4]oxadiazol-3-yl]-1-[1-(4-trifluoromethyl-phenyl)-cyclopropyl]-1H-quinolin-4-one] | > 10 µM
CN1CCN(c2cc3c(cc2F)c(=O)c(-c2noc(Cc4ccc(F)cc4)n2)cn3Cc2cccc(C(F)(F)F)c2)CC1 [Compound 91, 6-fluoro-3-[5-(4-fluoro-benzyl)-[1,2,4]oxadiazol-3-yl]-7-(4-methyl-piperazin-1-yl)-1-(3-trifluoromethyl-benzyl)-1H-quinolin-4-one] | < 2 µM
CN1CCN(c2cc3c(cc2F)c(=O)c(-c2noc(C(C)(C)c4ccccc4)n2)cn3Cc2ccc(Cl)nc2)CC1 [Compound 92, 1-(6-chloro-pyridin-3-ylmethyl)-6-fluoro-3-[5-(1-methyl-1-phenyl-ethyl)-[1,2,4]oxadiazol-3-yl]-7-(4-methyl-piperazin-1-yl)-1H-quinolin-4-one] | < 0.5 µM
O=c1c(-c2noc(Cc3ccccc3)n2)cn(Cc2ccc(C(F)(F)F)cc2F)c2ccccc12 [Compound 94, 3-(5-benzyl-[1,2,4]oxadiazol-3-yl)-1-(2-fluoro-4-trifluoromethyl-benzyl)-1H-quinolin-4-one] | > 10 µM
N#CCCCC(c1ccccc1)c1nc(-c2cn(Cc3ccc(C(F)(F)F)cc3F)c3ccccc3c2=O)no1 (centres unmarked) [Compound 95, 5-{3-[1-(2-fluoro-4-trifluoromethyl-benzyl)-4-oxo-1,4-dihydro-quinolin-3-yl]-[1,2,4]oxadiazol-5-yl}-5-phenyl-pentanenitrile] | > 10 µM
CN1CCN(c2cc3c(cc2F)c(=O)c(-c2noc(C(C)(C)c4ccccc4)n2)cn3C2(c3ccc(C(F)(F)F)cc3)CC2)CC1 [Compound 96, 6-fluoro-3-[5-(1-methyl-1-phenyl-ethyl)-[1,2,4]oxadiazol-3-yl]-7-(4-methyl-piperazin-1-yl)-1-[1-(4-trifluoromethyl-phenyl)-cyclopropyl]-1H-quinolin-4-one] | < 0.5 µM
CN(CC(N)=O)c1cc2c(cc1F)c(=O)c(-c1noc(Cc3ccccc3)n1)cn2Cc1ccc(C(F)(F)F)cc1 [Compound 97, 2-{[3-(5-benzyl-[1,2,4]oxadiazol-3-yl)-6-fluoro-4-oxo-1-(4-trifluoromethyl-benzyl)-1,4-dihydro-quinolin-7-yl]-methyl-amino}-acetamide] | > 10 µM
CN1CCN(c2cc3c(cc2F)c(=O)c(-c2noc(C(C)(C)c4ccccc4)n2)cn3Cc2cccc(C(F)(F)F)c2)CC1 [Compound 98, 6-fluoro-3-[5-(1-methyl-1-phenyl-ethyl)-[1,2,4]oxadiazol-3-yl]-7-(4-methyl-piperazin-1-yl)-1-(3-trifluoromethyl-benzyl)-1H-quinolin-4-one] | < 0.5 µM
NC(=O)CCCC(c1ccccc1)c1nc(-c2cn(Cc3ccc(C(F)(F)F)cc3F)c3ccccc3c2=O)no1 (centres unmarked) [Compound 99, 5-{3-[1-(2-fluoro-4-trifluoromethyl-benzyl)-4-oxo-1,4-dihydro-quinolin-3-yl]-[1,2,4]oxadiazol-5-yl}-5-phenyl-pentanoic acid amide] | > 10 µM
CC(C)(c1ccccc1)c1nc(-c2cn(Cc3ccc(C(F)(F)F)cc3)c3cc(N4CCS(=O)(=O)CC4)c(F)cc3c2=O)no1 [Compound 100, 7-(1,1-dioxo-thiomorpholin-4-yl)-6-fluoro-3-[5-(1-methyl-1-phenyl-ethyl)-[1,2,4]oxadiazol-3-yl]-1-(4-trifluoromethyl-benzyl)-1H-quinolin-4-one] | < 0.5 µM
CC(C)(c1ccccc1)c1nc(-c2cn(Cc3ccc(C(F)(F)F)cc3)c3cc(N4CCSCC4)c(F)cc3c2=O)no1 [Compound 101, 6-fluoro-3-[5-(1-methyl-1-phenyl-ethyl)-[1,2,4]oxadiazol-3-yl]-7-thiomorpholin-4-yl-1-(4-trifluoromethyl-benzyl)-1H-quinolin-4-one] | < 0.5 µM
CC(C)(C)c1ccc(Cn2cc(-c3noc(Cc4ccccc4)n3)c(=O)c3cc(F)c(N4CCCNCC4)cc32)cc1 [Compound 102, 3-(5-benzyl-[1,2,4]oxadiazol-3-yl)-1-(4-tert-butyl-benzyl)-7-[1,4]diazepan-1-yl-6-fluoro-1H-quinolin-4-one] | < 2 µM
CN1CCCN(c2nc3c(cc2F)c(=O)c(-c2noc(C(C)(C)c4ccccc4)n2)cn3Cc2ccc(C(F)(F)F)cc2)CC1 [Compound 103, 6-fluoro-7-(4-methyl-[1,4]diazepan-1-yl)-3-[5-(1-methyl-1-phenyl-ethyl)-[1,2,4]oxadiazol-3-yl]-1-(4-trifluoromethyl-benzyl)-1H-[1,8]naphthyridin-4-one] | < 2 µM
O=C(O)c1cn(-c2cc3c(cc2F)c(=O)c(-c2noc(Cc4ccccc4)n2)cn3Cc2ccc(C(F)(F)F)cc2F)cn1 [Compound 104, 1-(3-(5-benzyl-1,2,4-oxadiazol-3-yl)-6-fluoro-1-(2-fluoro-4-(trifluoromethyl)benzyl)-4-oxo-1,4-dihydroquinolin-7-yl)-1H-imidazole-4-carboxylic acid] | > 10 µM
NC(=O)Cc1ccc2c(c1)c(=O)c(-c1noc(Cc3ccccc3)n1)cn2Cc1ccc(C(F)(F)F)cc1F [Compound 105, 2-(3-(5-benzyl-1,2,4-oxadiazol-3-yl)-1-(2-fluoro-4-(trifluoromethyl)benzyl)-4-oxo-1,4-dihydroquinolin-6-yl)acetamide] | > 10 µM
CC(c1ccc(C(F)(F)F)cc1)n1cc(-c2noc(C(C)(C)c3ccc(F)cc3)n2)c(=O)c2cc(F)c(N3CCOCC3)cc21 (centres unmarked) [Compound 109, 6-fluoro-3-(5-(2-(4-fluorophenyl)propan-2-yl)-1,2,4-oxadiazol-3-yl)-7-morpholino-1-(1-(4-(trifluoromethyl)phenyl)ethyl)quinolin-4(1H)-one] | < 2 µM
CC(C)(c1ccc(F)cc1)c1nc(-c2cn(Cc3ccc(C(F)(F)F)cc3)c3cc(N4CCNC(=O)C4)c(F)cc3c2=O)no1 [Compound 125, 6-fluoro-3-(5-(2-(4-fluorophenyl)propan-2-yl)-1,2,4-oxadiazol-3-yl)-7-(3-oxopiperazin-1-yl)-1-(4-(trifluoromethyl)benzyl)quinolin-4(1H)-one] | < 0.5 µM
CC(C)(c1ccccc1)c1nc(-c2cn(Cc3ccc(C(F)(F)F)cc3)c3cc(N4CCNC(=O)C4)c(F)cc3c2=O)no1 [Compound 126, 6-fluoro-7-(3-oxopiperazin-1-yl)-3-(5-(2-phenylpropan-2-yl)-1,2,4-oxadiazol-3-yl)-1-(4-(trifluoromethyl)benzyl)quinolin-4(1H)-one] | < 0.5 µM
CC(C)(c1ccc(Cl)cc1)c1nc(-c2cn(Cc3ccc(C(F)(F)F)cc3)c3cc(N4CCS(=O)(=O)CC4)c(F)cc3c2=O)no1 [Compound 127, 3-(5-(2-(4-chlorophenyl)propan-2-yl)-1,2,4-oxadiazol-3-yl)-6-fluoro-7-dioxo-thiomorpholino-1-(4-(trifluoromethyl)benzyl)quinolin-4(1H)-one] | < 10 µM
